The values below come from PubChem BioAssay AID1421 (Emory University Molecular Libraries Screening Center, 2008).

The structures appear in SMILES notation. Activity calls are given as the source filed them. The rule behind the calls is not given here.

The target in the first assay is Prostaglandin E2 receptor EP2 subtype (Homo sapiens) (UniProt P43116). The assay is described as follows: compounds shifting PGE2 potency at EP2 – cell-based, human EP2, PGE2 EC50 shift, dose response (AID 1421). To be noted: EP2-expressing cells, PGE2 EC50 shift by compound.
Chain of Prostaglandin E2 receptor EP2 subtype (Homo sapiens) (P43116 whole entry, looked up): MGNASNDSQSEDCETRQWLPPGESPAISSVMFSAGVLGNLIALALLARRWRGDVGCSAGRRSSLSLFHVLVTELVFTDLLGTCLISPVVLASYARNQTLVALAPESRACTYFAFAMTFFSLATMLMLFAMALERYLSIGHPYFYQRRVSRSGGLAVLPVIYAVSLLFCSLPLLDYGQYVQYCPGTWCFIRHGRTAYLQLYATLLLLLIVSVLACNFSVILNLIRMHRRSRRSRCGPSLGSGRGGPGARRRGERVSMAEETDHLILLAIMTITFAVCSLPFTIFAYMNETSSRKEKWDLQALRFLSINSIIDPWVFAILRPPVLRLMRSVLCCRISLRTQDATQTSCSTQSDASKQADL
With `CCOC(=O)c1c(NC(=O)c2cccs2)sc(C)c1CC`, the outcome was active.

`CCOC(=O)c1c(C)[nH]c(C=O)c1Cc1cccc(Cl)c1`: the result was active.

On to `COCCn1c(SC(C(=O)Nc2cc(C)ccc2OC)c2ccccc2)nnc1-c1ccc(Cl)cc1` (configuration not stated), for which the outcome was active.

Regarding `NC(=O)CSc1nc(-c2ccccc2)c(-c2ccccc2)o1`, the result was active.

Consider `CCCSc1ncnc2c1oc1ccccc12`, for which the result was active.

For `Cc1ccc(NC2=C(C(=O)c3ccccc3)N(C)S(=O)(=O)c3ccccc32)cc1`, the outcome was active.

The assay is the same for the next values; noted with them: EP2-expressing cells, PGE2 EC50 shift by compound; measured here: PGE2 EC50 at 6.7 uM compound.
With `CCOC(=O)c1c(NC(=O)c2cccs2)sc(C)c1CC`, the PGE2 EC50 with compound is 1.51 nM.

On to `S=c1[nH]nc(C2CCCCC2)n1Cc1ccccc1`, for which the PGE2 EC50 with compound was determined as 1.02 nM.

On to `COC(=O)c1sc2[nH]c(=S)n(N)c(=O)c2c1C`, for which the PGE2 EC50 with compound is 1.06 nM.

In the case of `CN(CC(=O)Nc1ccccc1-c1ccccc1)C1CCCCC1`, the PGE2 EC50 with compound worked out at 0.51 nM.

As to `CCOc1ccc(Cc2n[nH]c(=S)n2Cc2ccccc2)cc1`, the PGE2 EC50 with compound amounted to 0.69 nM.

Regarding `Cc1cc(C)c(C#N)c(Oc2ccccc2Br)n1`, the PGE2 EC50 with compound was 1.01 nM.

With `Cn1c(=O)c2c(nc(CN3CCN(c4ccccc4)CC3)n2Cc2ccccc2Cl)n(C)c1=O`, the PGE2 EC50 with compound turned out to be 2.59 nM.

As for `CCOC(=O)Cn1c(=S)[nH]c2c(oc3ccc(Cl)cc32)c1=O`, the PGE2 EC50 with compound turned out to be 2.77 nM.

On to `CCOC(=O)c1c(NC(=O)Cc2cccs2)sc(C)c1C`, for which the PGE2 EC50 with compound came out at 0.87 nM.

`CC(=O)N1Cc2ccccc2C(C)CC12CCCCC2` (configuration not stated): the PGE2 EC50 with compound is 0.93 nM.

For `CCOC(=O)c1c(C)[nH]c(C=O)c1Cc1cccc(Cl)c1`, the PGE2 EC50 with compound turned out to be 0.98 nM.

As for `O=C(O)c1cc(C(=O)O)cc(N2C(=O)c3ccccc3C2=O)c1`, the PGE2 EC50 with compound is 0.83 nM.

Regarding `COc1ccc(C)cc1-n1c(=O)c2ccccc2c2ccccc2c1=O`, the PGE2 EC50 with compound is 0.71 nM.

For `CCOC(=O)c1c(NC(=O)CN2CCN(C(=O)c3ccco3)CC2)sc2c1CCCC2`, the PGE2 EC50 with compound was found to be 0.85 nM.

`Cc1cc(C)n(-c2cc(-c3ccccc3)nc(C)n2)n1`: the PGE2 EC50 with compound was 2.6 nM.

`S=c1nc[nH]c2c1[nH]c1ccccc12`: the PGE2 EC50 with compound was determined as 1.29 nM.

Take `CCCCCn1c(CN2CCN(c3cc(Cl)ccc3C)CC2)nc2c1c(=O)[nH]c(=O)n2C`: the PGE2 EC50 with compound is 1.25 nM.

As for `O=C(Nc1ccccc1Oc1ccccc1)c1ccc(Br)o1`, the PGE2 EC50 with compound came to 1.05 nM.

Consider `CSc1nc(-c2ccc(Cl)cc2)nn1S(=O)(=O)c1ccccc1`, for which the PGE2 EC50 with compound is 1.03 nM.

In the case of `CNC(=O)c1cc2c(=O)n3cc(C)ccc3nc2n(C(C)C)c1=N`, the PGE2 EC50 with compound was determined as 1.13 nM.

For `CCOC(=O)c1c(-c2ccc(C)cc2)csc1NC(=O)c1ccc(N2C(=O)CCC2=O)cc1`, the PGE2 EC50 with compound is 1.5 nM.

For the compound `Cc1noc(C)c1CSc1ncnc2sc(C)c(C)c12`, the PGE2 EC50 with compound worked out at 1.38 nM.

`O=C(Nc1ccccc1N1CCCCC1)c1ccc2nccnc2c1`: the PGE2 EC50 with compound came to 1.35 nM.

For `CCOC(=O)C1=C(C)OC(N)=C(C#N)C1c1cc(C)sc1C` (configuration not stated), the PGE2 EC50 with compound is 1.3 nM.

Consider `Cc1ccc(C)c(CN2C(=O)C(C)Oc3ccc(C)cc32)c1` (configuration not stated), for which the PGE2 EC50 with compound turned out to be 0.31 nM.

For `CC(=O)c1ccc2c(c1)c1ccccc1n2CC(C)C`, the PGE2 EC50 with compound came to 1.35 nM.

Regarding `COc1cc(O)c2c(=O)cc(C)oc2c1CC=C(C)C`, the PGE2 EC50 with compound turned out to be 2.64 nM.

Consider `Cc1ccc(Cn2c(Cc3ccccc3)nc3ccccc32)cc1`, for which the PGE2 EC50 with compound was 2.5 nM.

Turning to `Cc1cc(=O)oc(C)c1C(=O)OC(C(=O)c1ccccc1)c1ccccc1` (configuration not stated), the PGE2 EC50 with compound was determined as 1.57 nM.

Regarding `Cc1ccccc1NC(=S)N(Cc1ccco1)C(C)c1cccs1` (configuration not stated), the PGE2 EC50 with compound amounted to 1.68 nM.

`Cn1c(CNc2ccc(F)cc2)nnc1SCC(=O)NNC(=O)Cc1ccccc1`: the PGE2 EC50 with compound was determined as 1.63 nM.

Take `Cc1cc(O)ccc1C1(c2ccc(O)cc2C)OC(=O)c2ccccc21`: the PGE2 EC50 with compound was 0.55 nM.

As for `Cc1ccc(C(Sc2ccccc2)C(Cn2cncn2)C(=O)c2ccccc2)cc1` (configuration not stated), the PGE2 EC50 with compound was found to be 0.97 nM.

Regarding `CCCC(=O)C1=C(O)C(C(=O)OC)C(C)(C)CC1=Nc1cccc2ccccc12` (configuration not stated), the PGE2 EC50 with compound worked out at 1.53 nM.

Turning to `CCOc1cccc(CNc2ccc(O)cc2)c1OCc1ccc(Cl)cc1`, the PGE2 EC50 with compound turned out to be 1.41 nM.

Regarding `CC(C)c1cc(=O)oc2c3c4c(cc12)CCCN4CCC3`, the PGE2 EC50 with compound is 1.15 nM.

For the compound `COc1cc(/C=C2\SC(=S)N(Nc3ncc(C(F)(F)F)cc3Cl)C2=O)ccc1O`, the PGE2 EC50 with compound was found to be 1.36 nM.

Turning to `c1ccc(-c2noc(-c3cccc4ccccc34)n2)cc1`, the PGE2 EC50 with compound is 1.18 nM.

With `C=C(C)COc1ccc2c(c1)CC[C@@H]1[C@H]3C/C(=N/O)C(=O)[C@]3(C)CC[C@@H]21`, the PGE2 EC50 with compound turned out to be 1.03 nM.

As for `O=c1[nH]ncc2c3ccccc3n(Cc3cccc(Cl)c3)c12`, the PGE2 EC50 with compound turned out to be 0.98 nM.

Take `COc1c(Cl)cc(Cl)cc1C(=O)n1nc(C)cc1C`: the PGE2 EC50 with compound was 1.14 nM.

In the case of `Clc1ccccc1Cn1c(/C=C/c2ccco2)nc2ccccc21`, the PGE2 EC50 with compound stood at 0.99 nM.

For `O=c1c2ccccc2c(-c2ccccc2)nn1-c1ccc(Cl)c(Cl)c1`, the PGE2 EC50 with compound was determined as 1.42 nM.

On to `Cc1ccc2c(c1)N(Cc1cccc(Cl)c1)C(=O)c1cccnc1O2`, for which the PGE2 EC50 with compound was determined as 0.95 nM.

Regarding `COCCn1c(SC(C(=O)Nc2cc(C)ccc2OC)c2ccccc2)nnc1-c1ccc(Cl)cc1` (configuration not stated), the PGE2 EC50 with compound amounted to 1.44 nM.

`C=CCOc1c(Br)cc(/C=N/n2c(CC)n[nH]c2=S)cc1Br`: the PGE2 EC50 with compound turned out to be 0.81 nM.

Consider `Cc1cc([N+](=O)[O-])c(C)c(Br)c1C`, for which the PGE2 EC50 with compound was 1.11 nM.

`O=c1[nH]c(N/N=C/c2ccccc2)nc2ccccc12`: the PGE2 EC50 with compound came to 0.74 nM.

Consider `O=C(NNc1ccc([N+](=O)[O-])cc1[N+](=O)[O-])C1C2CCCCC21` (configuration not stated), for which the PGE2 EC50 with compound was 0.66 nM.

As for `Cc1cc(C)c(S(=O)(=O)N(C2=NCCS2)S(=O)(=O)c2c(C)cc(C)cc2C)c(C)c1`, the PGE2 EC50 with compound was found to be 0.99 nM.

For `COC(=O)c1c(C)nc2ccccc2c1-c1ccccc1`, the PGE2 EC50 with compound was 1.54 nM.

`CCCC(=O)O[C@H]1C[C@@H](C)N(C(=O)c2ccccc2)c2ccc(C)cc21`: the PGE2 EC50 with compound is 0.88 nM.

On to `NC(=O)CSc1nc(-c2ccccc2)c(-c2ccccc2)o1`, for which the PGE2 EC50 with compound is 0.94 nM.

Consider `COc1ccc(Oc2cc(C(F)(F)F)nc(N(C)C)n2)cc1`, for which the PGE2 EC50 with compound was found to be 0.63 nM.

As for `COc1ccc(CCN(Cc2nc(-c3ccccc3)no2)Cc2nc(-c3ccccc3)no2)cc1OC`, the PGE2 EC50 with compound worked out at 1.2 nM.

With `CSc1ncnc2sc(C)c(C)c12`, the PGE2 EC50 with compound was 1.22 nM.

Regarding `CC(=O)c1ccc(-n2c(C)ccc2-c2ccccc2)cc1`, the PGE2 EC50 with compound worked out at 2.52 nM.

Turning to `O=C(OCc1ccc(Cl)cc1)c1ccccc1C(=O)c1ccccc1`, the PGE2 EC50 with compound stood at 1.02 nM.

Consider `CCOC(=O)c1ccccc1NC(=O)C1COc2ccccc2O1` (configuration not stated), for which the PGE2 EC50 with compound was determined as 0.66 nM.

Take `Cn1c(=O)c2c(nc(SCC(=O)N3CCc4ccccc4C3)n2C)n(C)c1=O`: the PGE2 EC50 with compound is 1.51 nM.

As to `CC(C)c1nc(Cl)c(C#N)c2c1CSC(C)(C)C2`, the PGE2 EC50 with compound worked out at 0.85 nM.

In the case of `FC(F)(F)c1cc(CO[C@H]2CCCN[C@H]2c2ccccc2)cc(C(F)(F)F)c1`, the PGE2 EC50 with compound was determined as 1.59 nM.

As for `C[C@H](CCC(=O)O)[C@@H]1CC[C@@H]2[C@H]3CC[C@@H]4C[C@H](O)CC[C@@]4(C)[C@@H]3CC[C@]21C`, the PGE2 EC50 with compound is 1.38 nM.

As for `CCCSc1ncnc2c1oc1ccccc12`, the PGE2 EC50 with compound was determined as 0.69 nM.

`Cc1ccc(NC2=C(C(=O)c3ccccc3)N(C)S(=O)(=O)c3ccccc32)cc1`: the PGE2 EC50 with compound turned out to be 1.28 nM.

For the compound `COC(=O)c1ccc(-c2ccco2)n1Cc1cccc(C)c1`, the PGE2 EC50 with compound was determined as 2.63 nM.
